Data on one compound can be found in patent publication EP0226985A2, “Method and reagent for determining testosterone as well as a monoclonal antibody suitable for this” (BOEHRINGER MANNHEIM GMBH, priority 1985, dated 1987).

In test [1] the test system is monoklonaler Antikörper MAK 160 (von Klon 160, ECACC 85 12 1701) gegen Testosteron. In words: Cross-reaction with other steroids, competitive ELISA on plates coated with Testosteron-3-carboxymethyloxim-RSA. The test is classed as binding, Maus. Conditions: calculated from C = antigen concentration needed to reach 50 % of the maximum signal, relative to Testosteron. The procedure: (§1) Um die Anwesenheit und Spezifität von Antikörpern gegen Testosteron im Serum immunisierter Mäuse oder in dem Kulturüberstand der Hybridzellen oder in Ascites zu erkennen, wird ein ELISA-Verfahren als Testprinzip verwendet: Mikrotiterplatten werden mit 1 /ug Testosteron-3-carboxymethyloxim-RSA/ml Beschichtungspuffer (0,2 M Natriumcarbonat/-Bicarbonat, pH 9,3-9,5) bei 37° C eine Stunde lang beschichtet. Es wird 10 Minuten mit 0,9 % Natriumchloridlösung und 1 % Albuminlösung nachbehandelt. Anschließend wird mit 0,9 % Natriumchloridlösung gewaschen. Danach wird bei 37° C eine Stunde mit 100 /ul Probe inkubiert und erneut mit 0,9 % Natriumchloridlösung gewaschen. Um eine mögliche Kreuzreaktion mit anderen Steroiden zu prüfen, werden der Probelösung 100 µg - 1 /ug/ml des zu prüfenden Steroids zugesetzt. Eine Erniedrigung des Meßsignals in Gegenwart anderer Steroide bedeutet Kreuzreaktion. Es folgt eine weitere Inkubation (eine Stunde, 37° C) mit 450 mU/ml eines Schaf-Fabanti-- Maus-Fcγ-Peroxidase-Konjugats. Nach einem erneuten Waschschritt mit 0,9 % Natriumchlorid wird die Peroxidaseaktivität in üblicher Weise bestimmt (beispielsweise mit ABTS, 30 Minuten bei Raumtemperatur, abgelesen wird die Extinktionsdifferenz, Δ mE, bei 405 nm).
(§2) Der Test wird, wie in Beispiel 2 beschrieben, durchgeführt. […]

The subject of test [2] is monoklonaler Antikörper MAK 97 (von Klon 97, ECACC 85 12 1702) gegen Testosteron. Described as above. In kind it is binding, Maus. Conditions: calculated from C = antigen concentration needed to reach 50 % of the maximum signal, relative to Testosteron. On the procedure: as §1, §2

`C[C@]12CCC(=O)C[C@@H]1CC[C@@H]1[C@@H]2CC[C@]2(C)[C@@H](O)CC[C@@H]12` [5α-Dihydrotestosteron]: the “Kreuzreaktion in % mit” value in test [1] is given as 4%; in test [2] it was 5%.
